Tests used:
human VPS34 = human VPS34 (Homo sapiens (Human), UniProt Q8NEB9); test: Human VPS34 enzyme assay (Adapta TR-FRET ADP detection); type: biochemical; set-up: Percent Inhibition: dose or concentration left out as unconfirmed; conditions: for IC50: IC50 range class
A431 cell line = test: Cellular anti-proliferative assay of VPS34 inhibitors in combination with a second therapeutic agent (Cell Titer Glo, 72 hrs); type: cell-based; conditions: for Meaning: call from Combination Index
Procedure: (§1) Example 57: Cellular Assay for Anti-proliferative Activity of VPS34 Inhibitors in Combination with a Second Therapeutic Agent
(§2) Cells were plated in 25 μl of media in 384 well plates at 1,000 cells per well (A431, PC9, and […] cell lines), 1,500 cells per well (NCI-H1975) or 2,000 cells per well (NCI-H1650). The plates were incubated for 24 hrs at 37° C., 6% CO2. The test compounds (see Table 38 below) were diluted serially, and 62.5 nL of each compound solution (or DMSO, if it is a single agent experiment) is added so the total added to the cells is 125 nL. Cell plates were incubated for 72 hrs at 37° C., 6% CO2. Cell Titer Glo reagent (Promega) was added. The plates were then incubated for 10 minutes at room temperature before luminescence was read on a plate reader such as the Pherastar Plus, Pherastar FS, or LEADSeeker imaging system.
(§3) Bliss antagonism was defined similarly.
(§4) Bliss dependence was defined as the percent cell survival at a certain dose combination divided by the percent cell survival predicted by Bliss independence. More specifically, the Bliss dependence is vAB/(vA*vB), where vAB is the viability with drug A and drug B added, while vA and vB are the viabilities with each drug alone. The dose for the combination used in this study is the inflection point for each drug alone.
(§5) Another way to evaluate additivity is through consideration of Loewe additivity. A difference between Bliss independence and Loewe additivity evaluations of drug combination data is that Bliss independence evaluates whether two drugs interact at all (the null hypothesis is that the mechanisms are entirely independent) and Loewe additivity evaluates whether two drugs interact in an additive fashion (the null hypothesis is that the two drugs work by identical mechanisms). For Bliss independence, the boundary between additivity and synergy must be measured. For Loewe additivity, this boundary is assumed to be at a value of 1. Thus, Bliss independence provides a boundary between antagonism and synergy or additivity. Loewe additivity provides a boundary between synergy and independence or antagonism.
(§6) Synergy can also be measured by nonlinear blending synergy. Nonlinear blending synergy [Peterson, J. J. and Novik, S. J. J Recept Signal Transduct Res, 27, 12-146 (2007))] is found by considering the percent cell death values along the nonlinear blending plot. If the maximum cell death occurs between the endpoints, then the blending synergy is the difference between the maximum cell death for the combined drugs and the maximum cell death for the either drug alone.
(§7) A derivative of Loewe additivity is the Combination Index, I (see Chou T. C., Talalay P. Adv. Enzyme Reg., 22: 27-55 (1984) and Berenbaum M. C. J. Theor. Biol., 114:413-431 (1985)). This measure is based on the shape of the isobologram which represents 50% viability (for a review of the use of isobolograms in analysis of drug combinations, see Tallarida, R. J. J. Pharm. Exp. Therap. 319:1-7 (2006)).
(§8) The results in Table 38A were summarized by categorizing the Combination Index, I. A mean Combination Index in the range (0.7-1.3) is classified as Additivity. A mean in the range (0-0.7) is classified as Synergy. A mean in the range (1.3-2) is classified as Subadditivity. A mean greater than 2 is classified as Antagonism. […] In this case, the Nonlinear Blending Synergy is used instead to generate a call (Table 38B). The categorization is similar to the Combination Index. A Nonlinear Blending Synergy within the range (−20, 20) is classified as Additive. A value below −20 is classified as Antagonism, while a value above 20 is classified as Synergy.

PC9 cell line = test: as above; type: cell-based, human; conditions: for Meaning: call from Combination Index
Procedure: as §1, §2, §3, §4, §5, §6, §7, §8

NCI-H1975 cell line = test: as above; type: cell-based, human; conditions: in combination with Afatinib (Compound Y)
Procedure: as §1, §2, §3, §4, §5, §6, §7, §8

NCI-H1650 cell line = test: as above; type: cell-based, human; conditions: NCI H-1650
Procedure: as §1, §2, §3, §4, §5, §6, §7, §8

[1] = in combination with Afatinib (Compound Y)
[2] = in combination with Erlotinib (Compound Y)

Sequence of human VPS34 (Q8NEB9 whole entry): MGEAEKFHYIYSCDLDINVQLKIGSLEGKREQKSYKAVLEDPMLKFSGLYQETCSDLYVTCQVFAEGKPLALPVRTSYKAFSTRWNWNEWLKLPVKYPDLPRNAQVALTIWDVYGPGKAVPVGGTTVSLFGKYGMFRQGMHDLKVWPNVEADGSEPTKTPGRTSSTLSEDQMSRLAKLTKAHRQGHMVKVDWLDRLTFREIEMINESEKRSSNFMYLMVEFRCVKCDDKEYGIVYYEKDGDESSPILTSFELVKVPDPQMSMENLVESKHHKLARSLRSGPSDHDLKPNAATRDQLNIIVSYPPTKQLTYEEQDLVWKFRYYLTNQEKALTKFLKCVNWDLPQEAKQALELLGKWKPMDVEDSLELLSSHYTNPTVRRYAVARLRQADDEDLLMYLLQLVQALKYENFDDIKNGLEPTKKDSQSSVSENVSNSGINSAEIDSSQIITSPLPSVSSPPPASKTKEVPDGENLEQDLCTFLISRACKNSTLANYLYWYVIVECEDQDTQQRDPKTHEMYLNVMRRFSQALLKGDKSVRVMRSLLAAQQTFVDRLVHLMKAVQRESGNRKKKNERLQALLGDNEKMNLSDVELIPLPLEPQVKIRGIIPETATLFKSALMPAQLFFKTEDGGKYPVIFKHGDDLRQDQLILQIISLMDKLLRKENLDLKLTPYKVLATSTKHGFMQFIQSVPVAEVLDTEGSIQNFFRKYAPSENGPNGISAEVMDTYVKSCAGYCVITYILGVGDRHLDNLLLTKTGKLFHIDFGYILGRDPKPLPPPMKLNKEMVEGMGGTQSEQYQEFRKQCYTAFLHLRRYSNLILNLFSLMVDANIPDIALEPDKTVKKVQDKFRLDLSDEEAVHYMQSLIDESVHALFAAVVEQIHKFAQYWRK

With `CC(=O)Nc1cc(-c2cnc(C)c(NS(=O)(=O)N(C)C)c2)ccn1` [Compound I-32, N-{5-[(dimethylsulfamoyl)amino]-6-methyl-3,4′-bipyridin-2′-yl}acetamide] the IC50 (human VPS34) was < 10 nM, the “Combination Index” value (A431 cell line; [1]) was 0.25 and the Meaning (A431 cell line; in combination with Afatinib) was “Synergy (A mean in the range (0-0.7) is classified as Synergy)”. For the same molecule, the “Combination Index” value (A431 cell line; [2]) was 0.73, the Meaning (A431 cell line; in combination with Erlotinib) was “Additivity (A mean Combination Index in the range (0.7-1.3) is classified as Additivity)” and the “Combination Index” value (PC9 cell line; [1]) was 0.79. The Meaning (PC9 cell line; in combination with Afatinib) was “Additivity (A mean Combination Index in the range (0.7-1.3) is classified as Additivity)”, the “Combination Index” value (PC9 cell line; [2]) was 0.78 and the Meaning (PC9 cell line; in combination with Erlotinib) was “Additivity (A mean Combination Index in the range (0.7-1.3) is classified as Additivity)”. The “Combination Index” value (NCI-H1975 cell line) was 0.66, the “Combination Index” value (NCI-H1650 cell line; [1]) was 0.40 and the “Blending Synergy” value (NCI-H1650 cell line; [2]) was 22.29.
With `COc1ncc(-c2ccnc(NC(C)=O)c2)cc1S(=O)(=O)NC12CC(C1)C2` [Compound I-470] the IC50 (human VPS34) was 10 to 50 nM.
With `Cc1nccc(Nc2cc(-c3cnc(C)c(OC4CCCC4)c3)ccn2)n1` [Compound I-471, 5-(cyclopentyloxy)-6-methyl-N-(2-methylpyrimidin-4-yl)-3,4′-bipyridin-2′-amine] the IC50 (human VPS34) was 10 to 50 nM.
With `CC(=O)Nc1cc(-c2cncc(Nc3ncco3)c2)ccn1` [Compound I-472, N-[5-(1,3-oxazol-2-ylamino)-3,4′-bipyridin-2′-yl]acetamide] the IC50 (human VPS34) was > 100 nM.
`CC(=O)Nc1cc(-c2cnc(Cl)c(N3CCCNS3(=O)=O)c2C)ccn1` [Compound I-473, N-[6-chloro-5-(1,1-dioxido-1,2,6-thiadiazinan-2-yl)-4-methyl-3,4′-bipyridin-2′-yl]acetamide] showed an IC50 (human VPS34) of 10 to 50 nM.
`CC(=O)Nc1cc(-c2cncc(S(=O)(=O)N3CCC3)c2)ccn1` [Compound I-474, N-[5-(azetidin-1-ylsulfonyl)-3,4′-bipyridin-2′-yl]acetamide] gave an IC50 (human VPS34) of 10 to 50 nM.
`Cc1nccc(Nc2cc(-c3cnc(C)c(Oc4ccccc4)c3)ccn2)n1` [Compound I-475, 6-methyl-N-(2-methylpyrimidin-4-yl)-5-phenoxy-3,4′-bipyridin-2′-amine] showed an IC50 (human VPS34) of 10 to 50 nM.
For `CC(=O)Nc1cc(-c2cc(NS(=O)(=O)N(C)C)c3ccnn3c2)ccn1` [Compound I-476, N-(4-{4-[(dimethylsulfamoyl)amino]pyrazolo[1.5-a]pyridin-6-yl}pyridin-2-yl)acetamide], the IC50 (human VPS34) was 10 to 50 nM.
`CC(=O)Nc1cc(-c2cnc(Cl)c(NS(=O)(=O)N3CC4CCC3C4)c2C)ccn1` (centres unmarked) [Compound I-477, N-{5-[(2-azabicyclo[2.2.1]hept-2-ylsulfonyl)amino]-6-chloro-4-methyl-3,4′-bipyridin-2′-yl}acetamide] was tested, and the IC50 (human VPS34) was 10 to 50 nM.
`CC(=O)Nc1cc(-c2cnc(C)c(OS(=O)(=O)c3ccc(F)cc3F)c2)ccn1` [Compound I-478, 2′-acetamido-6-methyl-3,4′-bipyridin-5-yl 2,4-difluorobenzenesulfonate] was tested, and the IC50 (human VPS34) was 10 to 50 nM.
With `CCOc1cc(-c2ccnc(Nc3ccnc(C)n3)c2)cnc1C` [Compound I-479, 5-ethoxy-6-methyl-N-(2-methylpyrimidin-4-yl)-3,4′-bipyridin-2′-amine] the IC50 (human VPS34) was 10 to 50 nM.
`Cc1nccc(Nc2cc(-c3cc(N)c4ccnn4c3)ccn2)n1` [Compound I-480, 6-{2-[(2-methylpyrimidin-4-yl)amino]pyridin-4-yl}pyrazolo[1.5-a]pyridin-4-amine] showed an IC50 (human VPS34) of 50 to 100 nM.
Molecule `CC(=O)Nc1cc(-c2cncc(S(=O)(=O)N3CCN(C)CC3)c2)ccn1` [Compound I-481] has an IC50 (human VPS34) of 10 to 50 nM.
With `Cc1nccc(Nc2cc(-c3cnc(C)c(NC(=O)N4CC(F)(F)C4)c3)ccn2)n1` [Compound I-482, 3,3-difluoro-N-{6-methyl-2′-[(2-methylpyrimidin-4-yl)amino]-3,4′-bipyridin-5-yl}azetidine-1-carboxamide] the IC50 (human VPS34) was 50 to 100 nM.
Work on `CC(=O)Nc1cc(-c2cnc(C)c(NS(=O)(=O)N3CCC(C)(C)CC3)c2)ccn1` [Compound I-483, N-(5-{[(4,4-dimethylpiperidin-1-yl)sulfonyl]-amino}-6-methyl-3,4′-bipyridin-2′-yl)acetamide] yielded an IC50 (human VPS34) of 10 to 50 nM.
`CC(=O)Nc1cc(-c2cnc3c(c2)S(=O)(=O)NCCO3)ccn1` [Compound I-484, N-(4-(1,1-dioxido-3,4-dihydro-2H-pyrido[2,3-b][1,4,5]oxathiazepin-8-yl)pyridin-2-yl)acetamide] gave an IC50 (human VPS34) of 50 to 100 nM.
With `CC(=O)Nc1cc(-c2cnc(C)c(C(=O)N(C)c3ccc(F)cc3F)c2)ccn1` [Compound I-485, 2′-acetamido-N-(2,4-difluorophenyl)-N,6-dimethyl-3,4′-bipyridine-5-carboxamide] the IC50 (human VPS34) was 10 to 50 nM.
In the case of `Cc1nccc(Nc2cc(-c3cc(NS(=O)(=O)c4ccc(F)cc4F)c4ccnn4c3)ccn2)n1` [Compound I-486, 2,4-difluoro-N-(6-{2-[(2-methylpyrimidin-4-yl)amino]pyridin-4-yl}pyrazolo[1,5-a]pyridin-4-yl)benzenesulfonamide], the IC50 (human VPS34) is reported as < 10 nM.
`CC(=O)Nc1cc(-c2cnc(N(C)C)c(S(=O)(=O)NC(C)(C)C)c2C)ccn1` [Compound I-487, N-[5-(tert-butylsulfamoyl)-6-(dimethylamino)-4-methyl-3,4′-bipyridin-2′-yl]acetamide] was tested, and the IC50 (human VPS34) was > 100 nM.
`CC(=O)Nc1cc(-c2cnc(Cl)c(NS(=O)(=O)N3CCCC3)c2C)ccn1` [Compound I-488, N-{6-chloro-4-methyl-5-[(pyrrolidin-1-ylsulfonyl)amino]-3,4′-bipyridin-2′-yl}acetamide] was tested, and the IC50 (human VPS34) was 10 to 50 nM.
For `CC(=O)Nc1cc(-c2cnc(N)c(N3CCCNS3(=O)=O)c2)ccn1` [Compound I-490, N-[6-amino-5-(1,1-dioxido-1,2,6-thiadiazinan-2-yl)-3,4′-bipyridin-2′-yl]acetamide], the IC50 (human VPS34) was < 10 nM.
`CC(=O)Nc1cc(-c2cnc(N(C)C)c(S(=O)(=O)Nc3ccc(F)cc3F)c2)ccn1` [Compound I-491, N-{5-[(2,4-difluorophenyl)sulfamoyl]-6-(dimethylamino)-3,4′-bipyridin-2′-yl}acetamide] gave an IC50 (human VPS34) of 10 to 50 nM.
With `CC(=O)Nc1cc(-c2cnc(C)c(OCC3CC3)c2)ccn1` [Compound I-492, N-[5-(cyclopropylmethoxy)-6-methyl-3,4′-bipyridin-2′-yl]acetamide] the IC50 (human VPS34) was > 100 nM.
In the case of `CC(=O)Nc1cc(-c2cnc(Cl)c(NS(=O)(=O)c3cn(C)nc3C(F)(F)F)c2C)ccn1` [Compound I-493, N-[6-chloro-4-methyl-5-({[1-methyl-3-(trifluoromethyl)-1H-pyrazol-4-yl]sulfonyl}amino)-3,4′-bipyridin-2′-yl]acetamide], the “Percent Inhibition” value (human VPS34) is reported as 99% and the IC50 (human VPS34) is reported as 10 to 50 nM.
Molecule `CC(=O)Nc1cc(-c2cnc(C)c(NS(=O)(=O)N(C)c3ccccc3)c2)ccn1` [Compound I-494, N-(6-methyl-5-{[methyl(phenyl)sulfamoyl]amino}-3,4′-bipyridin-2′-yl)acetamide] has an IC50 (human VPS34) of 50 to 100 nM.
`Cc1nccc(Nc2cc(-c3cnc(C)c(C(=O)N4CC(C)(C)C4)c3)ccn2)n1` [Compound I-495, (3,3-dimethylazetidin-1-yl){6-methyl-2′-[(2-methylpyrimidin-4-yl)amino]-3,4′-bipyridin-5-yl}methanone] gave an IC50 (human VPS34) of 10 to 50 nM.
